*1 amine or outer side, *2 acyl side, *3 side chain or, on linkers, in order; H or OH if unused. Where a SMILES comes first, the peptide text is derived from it. Bridges are numbered along the chain shown (N, C = ends). Roman numbers before positions name the chains, in order. [ ]: non-standard residue; d: D form. Actinocin(9to1) = Cc1c2oc3c(C)ccc(C(=O)[*:1])c3nc-2c(C(=O)[*:2])c(N)c1=O; NMeV = CN[C@H](C(=O)O)C(C)C; Sar = CNCC(=O)O
tested on: Chinese hamster ovary (CHO) cells, wildtype AuxB1; experiment: cells; type: cell-based; conditions: Cricetulus griseus, AuxB1, read-out: reduction in cell number below the value of completely untreated cultures

Structure (SMILES)	inhibition at 0.01 µM [%]
Cc1c2oc3c(C)ccc(C(=O)N[C@@H]4C(=O)N[C@H](C(C)C)C(=O)N5CCC[C@H]5C(=O)N(C)CC(=O)N(C)[C@@H](C(C)C)C(=O)O[C@@H]4C)c3nc-2c(C(=O)N[C@@H]2C(=O)N[C@H](C(C)C)C(=O)N3CCC[C@H]3C(=O)N(C)CC(=O)N(C)[C@@H](C(C)C)C(=O)O[C@@H]2C)c(N)c1=O [Actinomycin D, reference compound] (I: T[dV]P[Sar][NMeV] / II: T[dV]P[Sar][NMeV]; ester I:1-I:C, II:1-II:C; linker I:N-II:N via Actinocin(9to1))	10 to 20

tested on: resistant sublines of murine leukemia cells; experiment: not given; conditions: cited from earlier work

Structure (SMILES)	enhancement of the activity of antitumor agents against resistant sublines of murine leukemia cells
COc1ccc(CCN(C)CCCC(C#N)(c2ccc(OC)c(OC)c2)C(C)C)cc1OC (centres unmarked) [Verapamil]	enhance the activity of antitumor agents
CCN(CC)CCn1c(=O)c(Cc2ccc(OC)cc2)nc2ccccc21 [caroverine]	enhance the activity of antitumor agents
CN(C)CCCN1c2ccccc2CCc2ccc(Cl)cc21 [clomipramine]	enhance the activity of antitumor agents
COc1ccc([C@@H]2Sc3ccccc3N(CCN(C)C)C(=O)[C@@H]2OC(C)=O)cc1 [diltiazem]	enhance the activity of antitumor agents
COC(=O)C1=C(C)NC(C)=C(C(=O)OCCN(C)Cc2ccccc2)C1c1cccc([N+](=O)[O-])c1 (centres unmarked) [nicardipine]	enhance the activity of antitumor agents
C=C[C@H]1C[N@@]2CC[C@H]1C[C@@H]2[C@@H](O)c1ccnc2ccc(OC)cc12 [quinidine]	enhance the activity of antitumor agents
CN1CCN(CCCN2c3ccccc3Sc3ccc(C(F)(F)F)cc32)CC1 [trifluoperazine]	enhance the activity of antitumor agents
